Results on 2 compounds are retold here after patent US7112589B2, “Cysteine protease inhibitors with 2-cyano-4-amino-pyrimidine structure and cathepsin k inhibitory activity for the treatment of inflammations and other diseases” (Novartis AG, priority 2001, dated 2006).

This assay concerns the target T1, recombinant human cathepsin K (Homo sapiens, UniProt P43235).
T1 sequence (P43235 115-329): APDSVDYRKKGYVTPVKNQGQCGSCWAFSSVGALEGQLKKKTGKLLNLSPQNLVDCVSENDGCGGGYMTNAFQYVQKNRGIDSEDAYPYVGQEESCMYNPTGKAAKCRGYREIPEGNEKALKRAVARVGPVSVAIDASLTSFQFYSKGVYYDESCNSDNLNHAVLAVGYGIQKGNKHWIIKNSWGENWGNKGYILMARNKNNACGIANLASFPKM
The experiment in a line: in vitro inhibition of recombinant human cathepsin K (Z-Phe-Arg-AMCA fluorescence assay). In kind it is biochemical. As to conditions: recombinant human cathepsin K 0.16 nM, Z-Phe-Arg-AMCA substrate, pH 7.0, 30 min preincubation, 30 min incubation; read-out: IC50s for inhibition of human cathepsin K. The procedure: The in vitro assay is carried out as follows:
The assay is performed in 96 well microtiter plates at ambient temperature using recombinant human cathepsin K. Inhibition of cathepsin K is assayed at a constant enzyme (0.16 nM) and substrate concentration ([…] Z-Phe-Arg-AMCA-Peptide Institute Inc. Osaka, Japan) in 100 mM sodium phosphate buffer, pH 7.0, containing 2 mM dithiothreitol, 20 mM Tween 80 and 1 mM EDTA. Cathepsin K is preincubated with the inhibitors for 30 min, and the reaction is initiated by the addition of substrate. After 30 min incubation the reaction is stopped by the addition of E-64 (2 mM), and fluorescence intensity is read on a multi-well plate reader at excitation and emission wavelengths of 360 and 460 nm, respectively.

Consider `COCCN1CCC(Cc2ccc(C(=O)NCc3cnc(C#N)nc3NCC(C)(C)C)cc2)CC1` [Example I-23, N-[2-Cyano-4-(2,2-dimethyl-propylamino)-pyrimidin-5-ylmethyl]-4-[1-(2-methoxy-ethyl)-piperidin-4-ylmethyl]-benzamide], for which the IC50 is 1.5 nM.

As to `CN1CCN(Cc2ccc(C(=O)NCc3cnc(C#N)nc3NCC(C)(C)C)cc2)CC1` [Example I-22, N-[2-Cyano-4-(2,2-dimethyl-propylamino)-pyrimidin-5-ylmethyl]-4-(4-methyl-piperazin-1-ylmethyl)-benzamide], the IC50 was 3 nM.
